We go through 26 molecules from patent US8461152B2, “Arylcyclohexylethers of dihydrotetraazabenzoazulenes” (Hoffmann-La Roche Inc., priority 2008, dated 2013).

Each structure is given as a SMILES string. Where a name gives a salt, the structure may show the parent alone.

For the assay, the target named is T1, human V1a receptor (Homo sapiens, UniProt P37288).
T1 construct: expressed in transfected cells; host or cells: HEK293 cells, transiently transfected; membrane preparation
T1 sequence (P37288 whole entry): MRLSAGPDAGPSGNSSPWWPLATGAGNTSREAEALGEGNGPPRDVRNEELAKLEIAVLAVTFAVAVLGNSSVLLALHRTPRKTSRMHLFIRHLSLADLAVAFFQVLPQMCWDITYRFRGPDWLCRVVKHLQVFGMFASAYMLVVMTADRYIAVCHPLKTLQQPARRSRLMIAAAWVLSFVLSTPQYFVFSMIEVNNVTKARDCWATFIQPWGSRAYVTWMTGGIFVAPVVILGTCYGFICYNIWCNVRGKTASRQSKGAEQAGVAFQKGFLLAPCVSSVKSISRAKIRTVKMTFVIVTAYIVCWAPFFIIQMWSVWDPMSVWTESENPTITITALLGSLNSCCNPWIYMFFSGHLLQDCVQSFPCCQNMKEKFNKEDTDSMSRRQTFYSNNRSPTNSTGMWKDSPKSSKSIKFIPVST
Kind of assay: human V1a receptor binding studies (SPA, 3H-Vasopressin, membranes of transfected HEK293 cells). Particulars: displacement of 3H-Vasopressin, HEK293 cell membranes, 1 h at room temperature; Ki by Cheng-Prussoff equation; read-out: pKi (hV1a) (converted). As to the method: The human V1a receptor was cloned by RT-PCR from total human liver RNA. The coding sequence was subcloned in an expression vector after sequencing to confirm the identity of the amplified sequence. […] Cell membranes were prepared from HEK293 cells transiently transfected with the expression vector and grown in 20 liter fermenters with the following protocol.
50 g of cells are resuspended in 30 ml freshly prepared ice cold Lysis buffer (50 mM HEPES, 1 mM EDTA, 10 mM magnesium dichloride adjusted to pH=7.4+complete cocktail of protease inhibitor (Roche Diagnostics)). Homogenized with Polytron for 1 min and sonicated on ice for 2×2 minutes at 80% intensity (Vibracell sonicator). The preparation is centrifuged 20 min at 500 g at 4° C., the pellet is discarded and the supernatant centrifuged 1 hour at 43'000 g at 4° C. (19'000 rpm). The pellet is resuspended in 12.5 ml Lysis buffer+12.5 ml Sucrose 20% and homogenized using a Polytron for 1-2 min. The protein concentration is determined by the Bradford method and aliquots are stored at −80° C. until use. For binding studies 60 mg Yttrium silicate SPA beads (Amersham) are mixed with an aliquot of membrane in binding buffer (50 mM Tris, 120 mM sodium chloride, 5 mM potassium chloride, 2 mM Calcium dichloride, 10 mM magnesium dichloride) for 15 minutes with mixing. 50 μl of bead/membrane mixture is then added to each well of a 96 well plate, followed by 50 μl of 4 nM 3H-Vasopressin (American Radiolabeled Chemicals). For total binding measurement 100 μl of binding buffer are added to the respective wells, for non-specific binding 100 μl of 8.4 mM cold vasopressin and for compound testing 100 μl of a serial dilution of each compound in 2% dimethyl sulfoxide. The plate is incubated 1 h at room temperature, centrifuged […] at 1000 g and counted on a Packard Top-Count. Non-specific binding counts are subtracted from each well and data is normalized to the maximum specific binding set at 100%. To calculate an IC 50 the curve is fitted using a non-linear regression model (XLfit) and the Ki is calculated using the Cheng-Prussoff equation.
With `OCCN1Cc2cc(Cl)ccc2-n2c(nnc2[C@H]2CC[C@H](Oc3ccccc3)CC2)C1` [Example 6, trans-2-[8-Chloro-1-(4-phenoxy-cyclohexyl)-4H,6H-2,3,5,10b-tetraaza-benzoazulen-5-yl]-ethanol], the Ki is 1.58 nM.

`CC(C)(C)OC(=O)N1Cc2cc(Cl)ccc2-n2c(nnc2[C@H]2CC[C@H](Oc3ccc(C#N)cc3)CC2)C1` [Example 20, trans-8-Chloro-1-[4-(4-cyano-phenoxy)-cyclohexyl]-4H,6H-2,3,5,10b-tetraaza-benzo[e]azulene-5-carboxylic acid tert-butyl ester]: the Ki was 7.76 nM.

`Cc1ccccc1O[C@H]1CC[C@H](c2nnc3n2-c2ccc(Cl)cc2CN(C(=O)OC(C)(C)C)C3)CC1` [Example 49, trans-8-Chloro-1-(4-o-tolyloxy-cyclohexyl)-4H,6H-2,3,5,10b-tetraaza-benzoazulene-5-carboxylic acid tert-butyl ester]: the Ki was 7.08 nM.

As for `CC(C)(C)OC(=O)N1Cc2cc(Cl)ccc2-n2c(nnc2[C@H]2CC[C@H](Oc3cccc(Cl)c3)CC2)C1` [Example 26, trans-8-Chloro-1-[4-(3-chloro-phenoxy)-cyclohexyl]-4H,6H-2,3,5,10b-tetraaza-benzoazulene-5-carboxylic acid tert-butyl ester], the Ki is 4.17 nM.

On to `CN1Cc2cc(Cl)ccc2-n2c(nnc2[C@H]2CC[C@@H](Oc3ccccn3)CC2)C1` [Example 111, cis-8-Chloro-5-methyl-1-[4-(pyridin-2-yloxy)-cyclohexyl]-5,6-dihydro-4H-2,3,5,10b-tetraaza-benzo[e]azulene], for which the Ki was 3.31 nM.

Regarding `Clc1ccc2c(c1)CNCc1nnc([C@H]3CC[C@H](Oc4ccccc4)CC3)n1-2` [Example 2, trans-8-Chloro-1-(4-phenoxy-cyclohexyl)-5,6-dihydro-4H-2,3,5,10b-tetraaza-benzoazulene hydrochloride], the Ki was 4.37 nM.

`CC(C)(C)OC(=O)N1Cc2cc(Cl)ccc2-n2c(nnc2[C@H]2CC[C@H](Oc3ccccc3)CC2)C1` [Example 1, trans-8-Chloro-1-(4-phenoxy-cyclohexyl)-4H,6H-2,3,5,10b-tetraaza-benzoazulene-5-carboxylic acid tert-butyl ester]: the Ki was 3.24 nM.

As to `CC(C)(C)OC(=O)N1Cc2cc(Cl)ccc2-n2c(nnc2[C@H]2CC[C@@H](Oc3cccnn3)CC2)C1` [Example 93, cis-8-Chloro-1-[4-(pyridazin-3-yloxy)-cyclohexyl]-4H,6H-2,3,5,10b-tetraaza-benzo[e]azulene-5-carboxylic acid tert-butyl ester], the Ki is 7.94 nM.

As for `CN(C)S(=O)(=O)N1Cc2cc(Cl)ccc2-n2c(nnc2[C@H]2CC[C@H](Oc3ccccc3)CC2)C1` [Example 8, trans-8-Chloro-1-(4-phenoxy-cyclohexyl)-4H,6H-2,3,5,10b-tetraaza-benzoazulene-5-sulfonic acid dimethylamide], the Ki was 2 nM.

In the case of `Fc1ccc(O[C@H]2CC[C@H](c3nnc4n3-c3ccc(Cl)cc3CNC4)CC2)nc1` [Example 101, trans-8-Chloro-1-[4-(5-fluoro-pyridin-2-yloxy)-cyclohexyl]-5,6-dihydro-4H-2,3,5,10b-tetraaza-benzo[e]azulene], the Ki is 9.12 nM.

Take `Clc1ccc2c(c1)CN(Cc1ccccn1)Cc1nnc([C@H]3CC[C@H](Oc4ccccc4)CC3)n1-2` [Example 9, trans-8-Chloro-1-(4-phenoxy-cyclohexyl)-5-pyridin-2-ylmethyl-5,6-dihydro-4H-2,3,5,10b-tetraaza-benzoazulene]: the Ki was 1.82 nM.

With `CN1Cc2cc(Cl)ccc2-n2c(nnc2[C@H]2CC[C@H](Oc3ccncn3)CC2)C1` [Example 89, trans-8-Chloro-5-methyl-1-[4-(pyrimidin-4-yloxy)-cyclohexyl]-5,6-dihydro-4H-2,3,5,10b-tetraaza-benzo[e]azulene], the Ki is 12.3 nM.

For `CN1Cc2cc(Cl)ccc2-n2c(nnc2[C@H]2CC[C@H](Oc3ccc(F)cc3)CC2)C1` [Example 19, trans-8-Chloro-1-[4-(4-fluoro-phenoxy)-cyclohexyl]-5-methyl-5,6-dihydro-4H-2,3,5,10b-tetraaza-benzoazulene], the Ki was 3.09 nM.

In the case of `Cc1cccc(O[C@H]2CC[C@H](c3nnc4n3-c3ccc(Cl)cc3CNC4)CC2)c1` [Example 36, trans-8-Chloro-1-(4-m-tolyloxy-cyclohexyl)-5,6-dihydro-4H-2,3,5,10b-tetraaza-benzo[e]azulene hydrochloride], the Ki was 7.59 nM.

Consider `COc1cccc(O[C@H]2CC[C@H](c3nnc4n3-c3ccc(Cl)cc3CN(C(=O)OC(C)(C)C)C4)CC2)c1` [Example 29, trans-8-Chloro-1-[4-(3-methoxy-phenoxy)-cyclohexyl]-4H,6H-2,3,5,10b-tetraaza-benzoazulene-5-carboxylic acid tert-butyl ester], for which the Ki was 4.68 nM.

Consider `CC(C)(C)OC(=O)N1Cc2cc(Cl)ccc2-n2c(nnc2[C@H]2CC[C@H](Oc3ccccc3C#N)CC2)C1` [Example 46, trans-8-Chloro-1-[4-(2-cyano-phenoxy)-cyclohexyl]-4H,6H-2,3,5,10b-tetraaza-benzoazulene-5-carboxylic acid tert-butyl ester], for which the Ki is 2.88 nM.

Regarding `CC(C)(C)OC(=O)N1Cc2cc(Cl)ccc2-n2c(nnc2[C@H]2CC[C@H](Oc3cccc(C(C)(C)C)c3)CC2)C1` [Example 38, trans-1-[4-(3-tert-Butyl-phenoxy)-cyclohexyl]-8-chloro-4H,6H-2,3,5,10b-tetraaza-benzo[e]azulene-5-carboxylic acid tert-butyl ester], the Ki is 18.2 nM.

For `CC(C)(C)OC(=O)N1Cc2cc(Cl)ccc2-n2c(nnc2[C@H]2CC[C@H](Oc3cccnn3)CC2)C1` [Example 92, trans-8-Chloro-1-[4-(pyridazin-3-yloxy)-cyclohexyl]-4H,6H-2,3,5,10b-tetraaza-benzo[e]azulene-5-carboxylic acid tert-butyl ester], the Ki was 2.4 nM.

With `Cc1cccc(O[C@H]2CC[C@H](c3nnc4n3-c3ccc(Cl)cc3CN(C)C4)CC2)c1` [Example 37, trans-8-Chloro-5-methyl-1-(4-m-tolyloxy-cyclohexyl)-5,6-dihydro-4H-2,3,5,10b-tetraaza-benzo[e]azulene], the Ki is 1.7 nM.

Turning to `CC(C)(C)OC(=O)N1Cc2cc(Cl)ccc2-n2c(nnc2[C@H]2CC[C@H](Oc3ccc(F)cc3)CC2)C1` [Example 17, trans-8-Chloro-1-[4-(4-fluoro-phenoxy)-cyclohexyl]-4H,6H-2,3,5,10b-tetraaza-benzoazulene-5-carboxylic acid tert-butyl ester], the Ki was 3.72 nM.

As to `Cc1cccc(O[C@H]2CC[C@H](c3nnc4n3-c3ccc(Cl)cc3CNC4)CC2)n1` [Example 105, trans-8-Chloro-1-[4-(6-methyl-pyridin-2-yloxy)-cyclohexyl]-5,6-dihydro-4H-2,3,5,10b-tetraaza-benzo[e]azulene], the Ki was 5.75 nM.

Consider `CC(C)(C)OC(=O)N1Cc2cc(Cl)ccc2-n2c(nnc2[C@H]2CC[C@@H](Oc3ccccc3)CC2)C1` [Example 14, cis-8-Chloro-1-(4-phenoxy-cyclohexyl)-4H,6H-2,3,5,10b-tetraaza-benzoazulene-5-carboxylic acid tert-butyl ester], for which the Ki is 9.33 nM.

Regarding `CC(C)(C)OC(=O)N1Cc2cc(Cl)ccc2-n2c(nnc2[C@H]2CC[C@H](Oc3ccccn3)CC2)C1` [Example 67, trans-8-Chloro-1-[4-(pyridin-2-yloxy)-cyclohexyl]-4H,6H-2,3,5,10b-tetraaza-benzoazulene-5-carboxylic acid tert-butyl ester], the Ki is 3.31 nM.

For the molecule `CN1Cc2cc(Cl)ccc2-n2c(nnc2[C@H]2CC[C@H](Oc3cnccn3)CC2)C1` [Example 85, trans-8-Chloro-5-methyl-1-[4-(pyrazin-2-yloxy)-cyclohexyl]-5,6-dihydro-4H-2,3,5,10b-tetraaza-benzo[e]azulene], the Ki was 7.59 nM.

Regarding `CC(C)(C)OC(=O)N1Cc2cc(Cl)ccc2-n2c(nnc2[C@H]2CC[C@H](Oc3ccc(C(F)(F)F)cc3)CC2)C1` [Example 23, trans-8-Chloro-1-[4-(4-trifluoromethyl-phenoxy)-cyclohexyl]-4H,6H-2,3,5,10b-tetraaza-benzo[e]azulene-5-carboxylic acid tert-butyl ester], the Ki was 9.12 nM.

As to `COc1cccc(O[C@H]2CC[C@H](c3nnc4n3-c3ccc(Cl)cc3CN(C)C4)CC2)c1` [Example 31, trans-8-Chloro-1-[4-(3-methoxy-phenoxy)-cyclohexyl]-5-methyl-5,6-dihydro-4H-2,3,5,10b-tetraaza-benzoazulene], the Ki is 2.09 nM.
